According to US9957257B2, “Amide compounds as 5-HT4 receptor agonists” (SUVEN LIFE SCIENCES LIMITED, priority 2015, dated 2018):
pEC50: −log10 of the molar value. Where a name gives a salt, the structure may show the parent alone.

Target: T1, recombinant human 5-HT4 receptor (Homo sapiens, UniProt Q13639)
T1 construct: expressed in transfected cells
Assay: Determination of EC50 values for 5-HT4 receptor (CHO cells, pCRE-Luc reporter)
Type: cell-based
Details: luciferase reporter, 4 hours incubation, read-out: 5-HT4 receptor agonistic binding in-vitro EC50
Method: A stable CHO cell line expressing recombinant human 5-HT4 receptor and pCRE-Luc reporter system was used for cell-based assay. The assay offers a non-radioactive based approach to determine binding of a compound to GPCRs. In this specific assay, the level of intracellular cyclic AMP, which is modulated by activation, or inhibition of the receptor is measured. The recombinant cells harbor luciferase reporter gene under the control of cAMP response element.
The above cells were grown in 96 well clear bottom white plates in Hams F12 medium containing 10% fetal bovine serum (FBS). Prior to the addition of compounds or standard agonist, cells were serum starved overnight. Increasing concentrations of test compounds were added in OptiMEM medium to the cells. The incubation was continued at 37° C. in CO2 incubator for 4 hours. Medium was removed and cells were washed with phosphate buffered saline. The cells were lysed and luciferase activity was measured in a Luminometer. Luminescence units were plotted against the compound concentrations using Graphpad software. EC50 values of the compounds were defined as the concentration required in stimulating the luciferase activity by 50%.

T1 sequence (Q13639 whole entry): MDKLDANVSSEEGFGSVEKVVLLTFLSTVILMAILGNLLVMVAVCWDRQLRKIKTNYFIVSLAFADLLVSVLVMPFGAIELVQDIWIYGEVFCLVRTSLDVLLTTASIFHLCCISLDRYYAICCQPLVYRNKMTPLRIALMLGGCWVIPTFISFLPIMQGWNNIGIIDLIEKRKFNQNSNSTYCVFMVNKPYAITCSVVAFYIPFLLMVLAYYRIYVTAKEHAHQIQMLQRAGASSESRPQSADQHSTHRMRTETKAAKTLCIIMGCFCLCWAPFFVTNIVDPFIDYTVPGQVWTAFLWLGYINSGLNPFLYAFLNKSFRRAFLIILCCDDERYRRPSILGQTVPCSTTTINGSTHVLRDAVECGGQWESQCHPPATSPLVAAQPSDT

pEC50 | Compound
≥ 9.00 | Nc1c(Cl)cc(C(=O)NCC2C3CN(CC4CCOCC4)CC23)c2c1CCCO2 (stereo not drawn) [Example 1, 5-Amino-6-chloro-N-{[3-(tetrahydro-2H-pyran-4-ylmethyl)-3-azabicyclo[3.1.0]hex-6-yl]methyl}chroman-8-carboxamide hydrochloride]
8.30 to 8.96 | Nc1c(Cl)cc(C(=O)NCC2C3CN(C4CCOCC4)CC23)c2c1CCCO2 (stereo not drawn) [Example 6, 5-Amino-6-chloro-N-{[3-(tetrahydro-2H-pyran-4-yl)-3-azabicyclo[3.1.0]hex-6-yl]methyl}chroman-8-carboxamide L(+)-tartarate]
7.70 to 8.00 | Nc1ccc(C(=O)NCC2C3CN(CC4CCOCC4)CC23)c2c1CCCO2 (stereo not drawn) [Example 7, 5-Amino-N-{[3-(tetrahydro-2H-pyran-4-ylmethyl)-3-azabicyclo[3.1.0]hex-6-yl]methyl}chroman-8-carboxamide L(+)-tartarate]
≥ 9.00 | Nc1c(Cl)cc(C(=O)NCC2[C@H]3CN(CC4CCOC4)C[C@@H]23)c2c1CCCO2 (stereo partly drawn) [Example 8, (R,S) 5-Amino-6-chloro-N-{[3-(tetrahydro-3-furanylmethyl)-3-azabicyclo[3.1.0]hex-6-yl]methyl}chroman-8-carboxamide]
8.30 to 8.96 | Nc1c(Cl)cc(C(=O)NCC2(F)CCN(CC3CCOC3)CC2)c2c1CCCO2 (stereo not drawn) [Example 10, 5-Amino-6-chloro-N-{[4-fluoro-1-(tetrahydro-3-furanylmethyl)-4-piperidinyl]methyl}chroman-8-carboxamide]
8.30 to 8.96 | Nc1c(Br)cc(C(=O)NCC2C3CN(CC4CCOCC4)CC23)c2c1CCCO2 (stereo not drawn) [Example 12, 5-Amino-6-bromo-N-{[3-(tetrahydro-2H-pyran-4-ylmethyl)-3-azabicyclo[3.1.0]hex-6-yl]methyl}chroman-8-carboxamide L(+)-tartarate]
8.00 to 8.29 | Nc1c(Cl)cc(C(=O)NCC2C3CN(CC4CCOCC4)CC23)c2occc12 (stereo not drawn) [Example 13, 4-Amino-5-chloro-N-{[3-(tetrahydro-2H-pyran-4-ylmethyl)-3-azabicyclo[3.1.0]hex-6-yl]methyl}benzofuran-7-carboxamide hydrochloride]
7.70 to 8.00 | Nc1c(Cl)cc(C(=O)NCC2C3CN(C4CCOCC4)CC23)c2occc12 (stereo not drawn) [Example 15, 4-Amino-5-chloro-N-{[3-(tetrahydro-2H-pyran-4-yl)-3-azabicyclo[3.1.0]hex-6-yl]methyl}benzofuran-7-carboxamide oxalate]
8.00 to 8.29 | COC(=O)N1CCC(N2CC3C(CNC(=O)c4cc(Cl)c(N)c5ccoc45)C3C2)CC1 (stereo not drawn) [Example 17, 4-Amino-5-chloro-N-{[3-(1-methoxycarbonylpiperidine-4-yl)-3-azabicyclo[3.1.0]hex-6-yl]methyl}benzofuran-7-carboxamide oxalate]
8.30 to 8.96 | Cc1cc2c(N)c(Cl)cc(C(=O)NCC3C4CN(CC5CCOCC5)CC34)c2o1 (stereo not drawn) [Example 18, 4-Amino-5-chloro-2-methyl-N-{[3-(tetrahydro-2H-pyran-4-ylmethyl)-3-azabicyclo[3.1.0]hex-6-yl]methyl}benzofuran-7-carboxamide hydrochloride]
8.00 to 8.29 | CC(C)N1CC2C(CNC(=O)c3cc(Cl)c(N)c4c3OCC4)C2C1 (stereo not drawn) [Example 20, 4-Amino-5-chloro-N-[(3-isopropyl-3-azabicyclo[3.1.0]hex-6-yl)methyl]-2,3-dihydrobenzofuran-7-carboxamide oxalate]
8.30 to 8.96 | Nc1c(Cl)cc(C(=O)NCC2C3CN(CC4CCC4)CC23)c2c1CCO2 (stereo not drawn) [Example 22, 4-Amino-5-chloro-N-{[3-(cyclobutylmethyl)-3-azabicyclo[3.1.0]hex-6-yl]methyl}-2,3-dihydrobenzofuran-7-carboxamide oxalate]
8.00 to 8.29 | COC(=O)N1CCC(N2CC3C(CNC(=O)c4cc(Cl)c(N)c5c4OCC5)C3C2)CC1 (stereo not drawn) [Example 24, 4-Amino-5-chloro-N-{[3-(1-methoxycarbonylpiperidine-4-yl)-3-azabicyclo[3.1.0]hex-6-yl]methyl}-2,3-dihydrobenzofuran-7-carboxamide L(+)-tartarate]
8.30 to 8.96 | Nc1c(Cl)cc(C(=O)NCC2C3CN(CC4CCOCC4)CC23)c2c1CCO2 (stereo not drawn) [Example 26, 4-Amino-5-chloro-N-{[3-(tetrahydropyran-4-ylmethyl)-3-azabicyclo[3.1.0]hex-6-yl]methyl}-2,3-dihydrobenzofuran-7-carboxamide L(+)-tartarate]
8.00 to 8.29 | Nc1c(Cl)cc(C(=O)NCC2C3CN(C4CCOCC4)CC23)c2c1CCO2 (stereo not drawn) [Example 28, 4-Amino-5-chloro-N-{[3-(tetrahydropyran-4-yl)-3-azabicyclo[3.1.0]hex-6-yl]methyl}-2,3-dihydrobenzofuran-7-carboxamide oxalate]
7.70 to 8.00 | Nc1c(Br)cc(C(=O)NCC2C3CN(C4CCOCC4)CC23)c2c1CCO2 (stereo not drawn) [Example 29, 4-Amino-5-bromo-N-{[3-(tetrahydropyran-4-yl)-3-azabicyclo[3.1.0]hex-6-yl]methyl}-2,3-dihydrobenzofuran-7-carboxamide oxalate]
8.30 to 8.96 | Nc1c(Cl)cc(C(=O)NCC2C3CN(CC4(O)CCOCC4)CC23)c2c1CCCO2 (stereo not drawn) [Example 30, 5-Amino-6-chloro-N-{[3-(4-hydroxytetrahydro-2H-pyran-4-ylmethyl)-3-azabicyclo[3.1.0]hex-6-yl]methyl}chroman-8-carboxamide L(+)-tartarate]
8.00 to 8.29 | Nc1c(Cl)cc(C(=O)NCC2C3CN(CC4(O)CCOCC4)CC23)c2occc12 (stereo not drawn) [Example 32, 4-Amino-5-chloro-N-{[3-(4-hydroxytetrahydro-2H-pyran-4-ylmethyl)-3-azabicyclo[3.1.0]hex-6-yl]methyl}benzofuran-7-carboxamide oxalate]
8.30 to 8.96 | Nc1c(Cl)cc(C(=O)NCC2C3CN(CC4(O)CCOCC4)CC23)c2c1CCO2 (stereo not drawn) [Example 35, 4-Amino-5-chloro-N-{[3-(4-hydroxytetrahydropyran-4-ylmethyl)-3-azabicyclo[3.1.0]hex-6-yl]methyl}-2,3-dihydrobenzofuran-7-carboxamide oxalate]
≥ 9.00 | Nc1c(Cl)cc(C(=O)NCC2C3CN(CC4(F)CCOCC4)CC23)c2c1CCCO2 (stereo not drawn) [Example 36, 5-Amino-6-chloro-N-{[3-(4-fluorotetrahydro-2H-pyran-4-ylmethyl)-3-azabicyclo[3.1.0]hex-6-yl]methyl}chroman-8-carboxamide L(+)-tartarate]
8.00 to 8.29 | CC(C)(O)CN1CCC(F)(CNC(=O)c2cc(Cl)c(N)c3ccoc23)CC1 [Example 38, 4-Amino-5-chloro-N-{[4-fluoro-1-(2-hydroxy-2-methylpropyl)-4-piperidinyl]methyl}benzofuran-7-carboxamide]
≥ 9.00 | CC(C)(O)CN1CCC(CNC(=O)c2cc(Cl)c(N)c3c2OCCC3)CC1 [Example 40, 5-Amino-6-chloro-N-{[1-(2-hydroxy-2-methylpropyl)-4-piperidinyl]methyl}chroman-8-carboxamide]
7.70 to 8.00 | CC(C)(O)CN1CCC(CNC(=O)c2cc(Cl)c(N)c3c2OCCC3)CC1 [Example 41, 5-Amino-6-chloro-N-{[1-(2-hydroxy-2-methylpropyl)-4-piperidinyl]methyl}chroman-8-carboxamide L(+)-tartarate]
8.00 to 8.29 | CC(C)(O)CN1CC2C(CNC(=O)c3cc(Cl)c(N)c4c3OCC4)C2C1 (stereo not drawn) [Example 42, 4-Amino-5-chloro-N-{[3-(2-hydroxy-2-methylpropyl)-3-azabicyclo[3.1.0]hex-6-yl]methyl}-2,3-dihydrobenzofuran-7-carboxamide oxalate]
